We go through 8 substances from paper PMC7711817, “Quantitative, High-Throughput Assays for Proteolytic Degradation of Amylin” (Methods and Protocols, 2020).

One data set has as its system avidin-agarose. The data set is described as follows: Avidin-agarose precipitation of fluoresceinated and biotinylated amylin substrates. It is filed as binding. The note with it: for precipitation by / binding to avidin(-agarose) of uncleaved substrate: uncleaved substrate (- IDE), 1 μM, fluorescence read-out. The source says:
In previous work, we developed robust proteolytic degradation assays for Aβ [18] and glucagon on the basis of synthetic versions of these substrates containing fluorescein at the N‑terminus and biotin (in the form of Lys(Ahx-biotin)) at the C-terminus. This general approach enables a facile method for detecting hydrolysis, which we call avidin-agarose precipitation (AP). Briefly, hydrolysis can be readily quantified by removing the intact (biotinylated and fluoresceinated) substrates with avidin-agarose, then quantifying the remaining (fluoresceinated only) proteolytic fragments by fluorescence. This approach has the advantage of being readily implementable in any laboratory equipped with a fluorescence reader. Although convenient, the AP protocol requires centrifugation and liquid transfer steps that make it less amenable to high-throughput or robotized applications (Figure 1a).
Because the C-terminal portion of human amylin is the most aggregation-prone region of the peptide, we hypothesized that strong secondary structure in this area may have rendered the biotin moiety inaccessible to productive interactions with avidin. […] In one version, substrate 2 (Figure 1c; Table 1), we swapped the positions of the fluorescein and biotin groups, while in the other, substrate 3 (Figure 1d; Table 1), we maintained their placement at the N‑ and C-termini, respectively. […] On the basis of these preliminary results, we elected to use substrate 3 for downstream assay development, renaming it FrAB (fluorescein-rodent amylin-biotin). As expected, hydrolysis of FrAB could be readily monitored using the AP protocol, with hydrolysis resulting in a steady increase in fluorescence signal as a function of time in the presence of low quantities of IDE (Figure 1e).

For data set [1], the target named is T1, recombinant human IDE (Homo sapiens, UniProt P14735). The data set is described as follows: Fluorescence change on full cleavage by IDE. Type of data set: biochemical. Also noted: made in house. Particulars: complete hydrolysis by excess IDE, 1 μM substrate, before avidin-agarose precipitation.
Method: Substrates were dissolved in DMSO as 1 mM stocks as calculated from the manufacturer-provided weight of lyophylized peptide and its MW, taking into account purity levels. […] The specific activity of recombinant IDE was verified to be within 5% of the value determined from protein concentration (quantified by nanodrop).
For fluorescence-dequenching assays, reactions were typically performed directly in low-volume 384-well microplates, and because the measurements could be monitored continuously, there was no need to stop the reactions. To that end, 3× IDE solution (10 µL) was combined with 3× compound or DMSO (10 µL) and allowed to equilibrate for ≥5 min at room temperature. Reactions were initiated by addition of 3× FrAB substrate (10 µL), typically at 100 nM final concentration. Fluorescence (λex = 336 nm, λem = 490 nm) was monitored repeatedly at frequent intervals (e.g., 30 s) on a multilabel plate reader (SpectraMAX, Molecular Devices, San Jose, CA, USA) using the default fluorescence measurement protocol.
Data set [2] concerns insulin-degrading enzyme (IDE). Particulars: cited from earlier work. The source says: Amylin is a 37-residue peptide with a highly conserved sequence that is present in all mammals. To be fully active, two major post-translational modifications are required: a C-terminal amide (Tyr37) and a disulfide bond between two cysteine residues found at positions 2 and 7 [6]. […] As is true for other amyloidogenic substrates, such as the amyloid β-protein (Aβ), it is likely that multiple amylin proteases exist that work in ... || We also developed a FRET-based fluorescence dequenching assay, which was successful in many respects, but about which some caution is warranted. First, the particular placement of the fluorescing EDANS and quenching DABCYL groups was designed to be optimal for a known cleavage site hydrolyzed by IDE [26]. This particular placement may not be ideal for other amylin proteases, depending on where they cleave the peptide. Secondly, whereas the FrAB-based AP and FP protocols both yielded kinetic parameters close to one another and also similar in magnitude to those obtained for other IDE substrat ...

Data set [3] has as its system beta-site APP-cleaving enzyme 2 (BACE2). Particulars: cited from earlier work. The source says: Amylin is a 37-residue peptide with a highly conserved sequence that is present in all mammals. To be fully active, two major post-translational modifications are required: a C-terminal amide (Tyr37) and a disulfide bond between two cysteine residues found at positions 2 and 7 [6]. […] As is true for other amyloidogenic substrates, such as the amyloid β-protein (Aβ), it is likely that multiple amylin proteases exist that work in ...

Data set [4] can be described thus: Effect of avidin concentration on FP (mP) of FrAB. It is filed as binding. The source says:
To assess the suitability of FrAB to the FP protocol, we measured the degree of depolarization (measured in millipolarization units, mP) in uncleaved versus fully cleaved substrate in the absence or presence of excess avidin. […] Not only was substantially less depolarization observed with the intact substrate alone, but the depolarization was reduced even further by the addition of avidin (Figure 1g). As expected from the preceding results, hydrolysis of FrAB as a function of time could be readily monitored using the FP protocol (Figure 1h).
Avidin (and avidin-agarose) is an expensive reagent, and thus it is valuable to establish the minimum avidin/FrAB ratio necessary for reliable results. To that end, we added varying amounts of avidin to a fixed quantity (100 nM) of both cleaved and uncleaved FrAB and assessed the results using the FP protocol. […] Accordingly, we recommend that a minimum avidin/FrAB ratio of ≈10:1 be used in practice.

Data set [5] deals with T1, recombinant human IDE. Particulars: FrAB substrate, AP protocol, 1 nM IDE; mean ± SEM of four independent replications.
Method: The specific activity of recombinant IDE was verified to be within 5% of the value determined from protein concentration (quantified by nanodrop).
To ensure homogeneity of solution concentrations, we mixed all solutions well by gentle rocking on a nutator for ≥10 min at room temp (21–23 °C), and dispensed them manually using 16-channel pipettors fitted with 20-µL FinnTip pipette tips. For experiments conducted in 384-well plates, or transfers thereto, mixing was performed by ≥3 rounds of trituration after dispensing of the final solution. […] After we carefully removed the tubes from the centrifuge to avoid disturbing the pelleted avidin-agarose, the supernatant was transferred to low-volume 384-well microplates (30 µL/well), then fluorescence (λex = 485 nm, λem = 515 nm) was read on a multilabel plate reader (SpectraMAX, Molecular Devices, San Jose, CA, USA).
(§1) For all assays, results were normalized to data from negative (0% hydrolysis, no IDE) and positive (100% hydrolysis, excess IDE) controls and, where appropriate, expressed as percent hydrolysis. In the case of AP-based assays, percent hydrolysis was a linear function of the percent maximal change in relative fluorescence (RFU; %ΔRFU) between positive and negative controls. […]
The target in data set [6] is T1, recombinant human IDE. Particulars: FrAB substrate, FP protocol (corrected), 1 nM IDE; mean ± SEM of four independent replications.
Method: For fluorescence polarization (FP)-based assays, reactions were typically performed directly in low-volume 384-well microplates. To that end, 3× IDE solution (8 µL) was combined with 3× compound or DMSO (8 µL) and allowed to equilibrate for ≥5 min at room temperature. Reactions were initiated by addition of 3× FrAB substrate (8 µL), typically at 100 nM final concentration, except where indicated. After the appropriate incubation period, reactions were terminated by addition of 4× FP Stop Buffer (8 µL; PBS/0.05% biotin-free BSA containing a final concentration of 2 mM 1,10-phenanthroline and 10-fold molar excess avidin (monomer)), triturated ≥3 times to ensure even mixing. […] Fluorescence polarization (λex = 485 nm, λem = 515 nm) was read on a multilabel plate reader (SpectraMAX M5^e, Molecular Devices, San Jose, CA, USA) using the default fluorescence polarization protocol, with the g-factor value maintained at 1.0. high-throughput screening (HTS) being performed manually using a 16-channel pipettor.
as §1
The conditions of data set [7]: cited from earlier work. From the text:
Amylin, also known as islet amyloid polypeptide, is a peptide hormone that is stored in pancreatic beta-cells and co-secreted with insulin in response to many factors, including glucose, arginine, and fatty acids. Amylin plays a role in inhibiting glucagon secretion and delaying gastric emptying as well as modulating other aspects of food processing and satiety.

Entries after “also recorded” stand apart in the source; their conditions may differ. Read-outs that look alike come from different tables or passages of the source. Where no end group is shown, it is not given here.

With “[5-FAM]KCNTATCATQRLANFLVHSSNNFGAILSSTNVGSNTY[Lys(Ahx-biotin)]-amide (disulfide) (5-FAM N-term, Lys(Ahx-biotin) C-term amide, disulfide) [Substrate 1]”, the “precipitation by / binding to avidin(-agarose) of uncleaved substrate” value is “biotin does not bind to avidin” with avidin-agarose and “could not be precipitated by avidin-agarose” with avidin-agarose (listed as substrate 1). The “fluorescence increase relative to uncleaved substrate (in words)” value with recombinant human IDE [1] is listed as “modest increase in fluorescence”.

For the substance “amylin: 37-residue pancreatic peptide hormone, also known as islet amyloid polypeptide (KCNTATCATQRLANFLVHSSNNFGAILSSTNVGSNTY; not fully specified (C-terminus, bridges); cysteine pairing not given here; UniProt P10997 34-70, looked up)”, the “hydrolysis by IDE” value in data set [2] was “can be hydrolyzed”. Further, the “hydrolysis by BACE2” value in data set [3] is reported as “can be hydrolyzed”.

For the substance “avidin: avidin, a 64-kDa tetramer; egg white avidin [reference compound]”, in data set [4] (avidin (monomer) concentration, uncleaved FrAB 100 nM, FP, n = 4 (mean ± SEM), read-out: apparent EC50 of avidin for increase in mP), the EC50 is 33.5 ± 7.5 nM. Also, the “avidin concentration at which increase in mP values reaches a plateau” value in data set [4] (avidin (monomer), 100 nM FrAB, FP protocol) is listed as “≈ 1 µM”.

For fluorescein-rodent amylin-biotin [FrAB], the “fluorescence of fully cleaved substrate after avidin-agarose precipitation” value with avidin-agarose (fully cleaved by IDE, 1 μM substrate, listed as substrate 3) is “remained constant before and after AP; also recorded: strong fluorescence signal after precipitation”. For the same substance, the “precipitation by / binding to avidin(-agarose) of uncleaved substrate” value with avidin-agarose (listed as substrate 3) is recorded as “readily precipitated by avidin-agarose”. The “depolarization of light by fully cleaved substrate” value in data set [4] (FrAB 1 μM, fully hydrolyzed (+ IDE) vs. uncleaved, FP) is “significantly more than uncleaved substrate”. Also, the “effect of avidin on mP of fully cleaved substrate” value in data set [4] (fully cleaved FrAB, 100 nM, FP protocol) is “unaffected by avidin; also recorded: unaffected even by very high concentrations of avidin”. For the same substance, the kcat/KM result on recombinant human IDE [5] and on recombinant human IDE [6] was “≈ 1 × 10^7 M^-1 s^-1” in each case.

With “glucagon: peptide hormone relevant to glucose homeostasis”, in data set [2], the “degradation by IDE” value was “IDE also degrades”.

“human amylin: aggregation-prone human form of amylin (KCNTATCATQRLANFLVHSSNNFGAILSSTNVGSNTY; not fully specified (C-terminus, bridges); cysteine pairing not given here; UniProt P10997 34-70, looked up)”: in data set [7] (human amylin), the aggregation propensity entry is listed as “highly aggregation-prone”.

On to “insulin: peptide hormone relevant to glucose homeostasis”, for which, in data set [2], the “degradation by IDE” value is on record as “IDE also degrades”.

Turning to “rodent amylin: rodent amylin, far less prone to aggregation than the human peptide”, in data set [7] (rodent amylin vs. human peptide), the aggregation propensity entry is “far less prone to aggregation and secondary structure formation than the human peptide”.

Usually EC50 stands for the concentration needed to bring the measured effect to its halfway point.
